Results: US7687079B2, “Methods of treating ileus” (priority 2002, dated 2010)

How the values were obtained:
[1] = test system: IL-6, IL-1β, TNFα, ICAM-1, COX-2, iNOS, IL-10 mRNA; assay: real time RT-PCR of inflammatory mediators, CO alone without surgery; format: in vivo, rat; conditions: inhalation of CO alone (no surgery)
Experimental: The effects of inhalation of CO on transplant-induced pro-inflammatory and anti-inflammatory gene expression was assessed in muscularis extracts by RT-PCR. Muscularis extemae was collected from normal intestine and transplanted grafts 4 hours postoperatively and snap frozen in liquid nitrogen. This time point falls within the range of maximum inflammatory mediator expression that occurs between 3 and 6 hours following abdominal incision. Total RNA extraction was performed using the guanidium-thiocyanate phenol-chloroform extraction method as described previously (Eskandari et al., Am. J. Clin. Pathol. 75(3):367-370 (1997)). RNA pellets were resuspended in RNA-secure resuspension solution (Ambion Inc., Austin, Tex.), followed by removal of potentially contaminating DNA by treatment with DNase I (DNA-Free Kit, Ambion Inc., Austin, Tex.). Equal aliquots (5 μg) of total RNA from each sample were quantified by spectrophotometry (wavelength […]) and aliquoted at a concentration of 40 ng/μl. Peak mRNA expression was quantified in duplicate by SYBR Green two-step, real-time RT-PCR. […] Real-time PCR data were plotted as the ΔRn, fluorescence signal versus the cycle number. […] Quantification of mRNA expression was normalized to GAPDH and calculated relative to control using the comparative CT method (Schmittgen et al., J. Biochem. Biophys. Methods 46(1-2):69-8 (2000)). […]

IL-1β mRNA = IL-1β mRNA in muscularis after IM (real time RT-PCR); format: in vivo, mouse; conditions: IM + CO vs IM, 6 hr
Experimental: Pro- and anti-inflammatory gene expression was determined by real time RT-PCR. The small intestinal muscularis externa was collected at 4 time points (3, 6, 12, and 24 hr) postoperatively and snap frozen in liquid nitrogen. Total RNA extraction was performed using the guanidium-thiocyanate phenol-chloroform extraction method as described in Eskandari et al. (Id.) RNA pellets were resuspended in RNA-secure resuspension solution (Ambion Inc., Austin, Tex.), followed by removal of potential contaminating DNA by treatment with DNase I (DNA-Free Kit, Ambion Inc., Austin, Tex.). Equal aliquots (5 μg) of total RNA from each sample were quantified by spectrophotometry (wavelength […]). Peak mRNA expression was quantified in duplicate by SYBR Green two-step, real-time RT-PCR. β-actin was used as the endogenous reference. […] Real-time PCR data were plotted as the ΔRn fluorescence signal versus the cycle number. […] Quantification of mRNA expression was normalized to β-actin and calculated relative to control using the comparative CT method.
To exclude PCR amplification of contaminating genomic DNA, RT-negative controls (samples containing RNA which was not reverse transcribed) were included in each PCR reaction. […] PCR amplification efficiency of each target cDNA was measured by determining the colinearity of serial dilutions. […]

[C-]#[O+] [CO, carbon monoxide]
expression of any of the mediators studied [1]: no effect | peak IL-1β mRNA expression (IL-1β mRNA): significantly inhibited
